From BindingDB's records for patent WO2022021841 (Sichuan University, 2022)

Molecular target: Replicase polyprotein 1ab (Severe acute respiratory syndrome coronavirus 2, UniProt P0DTD1)
Test: SARS-CoV-2 Coronavirus 3C Protease FRET Assay
Experimental: IC50 values were calculated by fitting a curve of Vmax to experimental values with the controls (DMSO) as the top and bottom limits of the curve. […] GraphPad Prism is the analysis tool for all measurements.

Compound: COC(=O)C[C@H](NC(=O)[C@@H]1CCCN1C(=O)c1cc2ccccc2[nH]1)C(=O)CF [WO2022021841, 1]
- Ki: 1100 nM

Compound: COC(=O)C[C@H](NC(=O)[C@@H]1[C@@H]2[C@H](CN1C(=O)/C=C/c1ccccc1)C2(C)C)C(=O)CF [WO2022021841, 2]
- Ki: 110 nM

Compound: O=C(N[C@@H](C[C@@H]1CCNC1=O)C(=O)CF)C1[C@H]2CCC[C@H]2CN1C(=O)COc1ccc(Cl)cc1Cl (stereo partly drawn) [WO2022021841, 3]
- Ki: 18 nM

Compound: CC1CNC(=O)[C@@H]1C[C@H](NC(=O)C1[C@H]2CCC[C@H]2CN1C(=O)COc1ccc(Cl)cc1Cl)C(=O)CF (stereo partly drawn) [WO2022021841, 4]
- Ki: 12 nM

Compound: CC1CNC(=O)[C@@H]1C[C@H](NC(=O)C1[C@H]2CCC[C@H]2CN1C(=O)COc1cccc(-c2ccccc2)c1)C(=O)CF (stereo partly drawn) [WO2022021841, 5]
- Ki: 11 nM

Compound: CC1CNC(=O)[C@@H]1C[C@H](NC(=O)C1[C@@H]2[C@H](CN1C(=O)COc1ccc(Cl)cc1Cl)C2(C)C)C(=O)CF (stereo partly drawn) [WO2022021841, 6]
- Ki: 9 nM

Compound: CC1CNC(=O)[C@@H]1C[C@H](NC(=O)C1[C@@H]2[C@H](CN1C(=O)COc1ccc(Cl)c(Cl)c1)C2(C)C)C(=O)CF (stereo partly drawn) [WO2022021841, 7]
- Ki: 15 nM

Compound: CC1CNC(=O)[C@@H]1C[C@H](NC(=O)C1[C@@H]2[C@H](CN1C(=O)COc1cccc(-c3ccc(Cl)cc3)c1)C2(C)C)C(=O)CF (stereo partly drawn) [WO2022021841, 8]
- Ki: 17 nM

Compound: CC1(C)[C@@H]2C(C(=O)N[C@H](C=O)Cc3ccccc3)N(C(=O)c3ccc4ccccc4n3)C[C@@H]21 (stereo partly drawn) [WO2022021841, 9]
- Ki: 24200 nM

Compound: CC1(C)[C@@H]2C(C(=O)N[C@H](C=O)Cc3ccccc3)N(C(=O)c3ccc4ccccc4c3)C[C@@H]21 (stereo partly drawn) [WO2022021841, 10]
- Ki: 585 nM

Compound: CCC[C@@H](NC(=O)C1[C@@H]2CCC[C@H]2CN1C(=O)c1cc2ccccc2[nH]1)C(=O)C(=O)NC1CC1 (stereo partly drawn) [WO2022021841, 11]
- Ki: 960 nM

Compound: CCC[C@@H](NC(=O)C1[C@@H]2CCC[C@H]2CN1C(=O)[C@@H](c1ccccc1)C(C)C)C(=O)C(=O)NC1CC1 (stereo partly drawn) [WO2022021841, 12]
- Ki: 16900 nM

Compound: CCC[C@@H](NC(=O)C1C2[C@H](CN1C(=O)[C@@H](c1ccccc1)C(C)C)C2(C)C)C(=O)C(=O)NC1CC1 (stereo partly drawn) [WO2022021841, 13]
- Ki: 82700 nM

Compound: CC1(C)[C@@H]2C(C(=O)N[C@H](C=O)C[C@@H]3CCNC3=O)N(C(=O)c3ccc4ccccc4c3)C[C@@H]21 (stereo partly drawn) [WO2022021841, 16]
- Ki: 343 nM

Compound: C[C@H](OCc1ccccc1)C(=O)N1C[C@@H]2CCC[C@@H]2C1C(=O)N[C@H](C=O)C[C@@H]1CCNC1=O (stereo partly drawn) [WO2022021841, 18]
- Ki: 28 nM

Compound: CC1(C)[C@@H]2C(C(=O)N[C@H](C=O)C[C@@H]3CCNC3=O)N(C(=O)COc3ccc4c(c3)OCO4)C[C@@H]21 (stereo partly drawn) [WO2022021841, 21]
- Ki: 73 nM

Compound: O=C[C@H](C[C@@H]1CCNC1=O)NC(=O)C1[C@@H]2CCC[C@H]2CN1C(=O)COc1ccc2c(c1)OCCO2 (stereo partly drawn) [WO2022021841, 22]
- Ki: 93 nM

Compound: COc1cccc(OCC(=O)N2C[C@H]3[C@@H](C2C(=O)N[C@H](C=O)C[C@@H]2CCNC2=O)C3(C)C)c1 (stereo partly drawn) [WO2022021841, 23]
- Ki: 37 nM

Compound: O=C[C@H](C[C@@H]1CCNC1=O)NC(=O)C1[C@@H]2CCC[C@H]2CN1C(=O)CCc1ccc(F)c(F)c1 (stereo partly drawn) [WO2022021841, 25]
- Ki: 16 nM

Compound: COc1ccc(OC(C)C(=O)N2C[C@@H]3CCC[C@H]3C2C(=O)N[C@H](C=O)C[C@@H]2CCNC2=O)cc1 (stereo partly drawn) [WO2022021841, 29]
- Ki: 78 nM

Compound: COc1ccc(OCC(=O)N2C[C@H]3[C@@H](C2C(=O)N[C@H](C=O)C[C@@H]2CCNC2=O)C3(C)C)cc1 (stereo partly drawn) [WO2022021841, 32]
- Ki: 36 nM

Compound: COc1cc(OCC(=O)N2C[C@H]3[C@@H](C2C(=O)N[C@H](C=O)C[C@@H]2CCNC2=O)C3(C)C)cc(OC)c1OC (stereo partly drawn) [WO2022021841, 35]
- Ki: 51 nM

Compound: CC(C)(Oc1ccc(Cl)cc1Cl)C(=O)N1Cc2ccccc2CC1C(=O)N[C@H](C=O)C[C@@H]1CCNC1=O (stereo partly drawn) [WO2022021841, 38]
- Ki: 91 nM

Compound: CC(C)(Oc1ccc(Cl)cc1Cl)C(=O)N1C[C@@H]2CCC[C@H]2C1C(=O)N[C@H](C=O)C[C@@H]1CCNC1=O (stereo partly drawn) [WO2022021841, 39]
- Ki: 33 nM

Compound: CC1CNC(=O)[C@@H]1C[C@@H](C=O)NC(=O)C1[C@@H]2CCC[C@H]2CN1C(=O)COc1ccc(Cl)cc1Cl (stereo partly drawn) [WO2022021841, 40]
- Ki: 17 nM

Compound: CC1CNC(=O)[C@@H]1C[C@@H](C=O)NC(=O)C1[C@@H]2CCC[C@H]2CN1C(=O)C(C)(C)Oc1ccc(Cl)cc1Cl (stereo partly drawn) [WO2022021841, 41]
- Ki: 56 nM

Compound: O=C(N[C@@H](C[C@@H]1CCNC1=O)C(=O)CCl)C1[C@@H]2CCC[C@H]2CN1C(=O)COc1ccc(Cl)cc1Cl (stereo partly drawn) [WO2022021841, 42]
- Ki: 19 nM

Compound: O=C[C@H](C[C@@H]1CCNC1=O)NC(=O)C1[C@@H]2CCC[C@H]2CN1C(=O)COc1cccc(-c2ccccc2)c1 (stereo partly drawn) [WO2022021841, 46]
- Ki: 10 nM

Compound: CC1CNC(=O)[C@@H]1C[C@@H](C=O)NC(=O)C1[C@@H]2CCC[C@H]2CN1C(=O)COc1cccc(-c2ccccc2)c1 (stereo partly drawn) [WO2022021841, 47]
- Ki: 12 nM

Compound: CC1CNC(=O)[C@@H]1C[C@@H](C=O)NC(=O)C1[C@@H]2[C@H](CN1C(=O)COc1ccc(Cl)c(Cl)c1)C2(C)C (stereo partly drawn) [WO2022021841, 48]
- Ki: 11 nM

Compound: CC1CNC(=O)[C@@H]1C[C@@H](C=O)NC(=O)C1[C@@H]2[C@H](CN1C(=O)COc1cccc(-c3ccc(Cl)cc3)c1)C2(C)C (stereo partly drawn) [WO2022021841, 49]
- Ki: 22 nM

Compound: CC(C)(C)NC(=O)C(=O)[C@H](C[C@@H]1CCNC1=O)NC(=O)C1[C@@H]2CCC[C@H]2CN1C(=O)COc1ccc(Cl)cc1Cl (stereo partly drawn) [WO2022021841, 50]
- Ki: 1190 nM

Compound: O=C(NCc1ccccc1)C(=O)[C@H](C[C@@H]1CCNC1=O)NC(=O)C1[C@@H]2CCC[C@H]2CN1C(=O)COc1ccc(Cl)cc1Cl (stereo partly drawn) [WO2022021841, 51]
- Ki: 50400 nM

Compound: O=C(NC1CC1)C(=O)[C@H](C[C@@H]1CCNC1=O)NC(=O)C1[C@@H]2CCC[C@H]2CN1C(=O)COc1ccc(Cl)cc1Cl (stereo partly drawn) [WO2022021841, 52]
- Ki: 875 nM

Compound: O=C(NCc1ccccn1)C(=O)[C@H](C[C@@H]1CCNC1=O)NC(=O)C1[C@@H]2CCC[C@H]2CN1C(=O)COc1ccc(Cl)cc1Cl (stereo partly drawn) [WO2022021841, 53]
- Ki: 63100 nM

Compound: CC1(C)CNC(=O)[C@@H]1C[C@@H](C=O)NC(=O)C1[C@@H]2CCC[C@H]2CN1C(=O)COc1ccc(Cl)cc1Cl (stereo partly drawn) [WO2022021841, 54]
- Ki: 24 nM

Compound: CC1(C)CNC(=O)[C@@H]1C[C@@H](C=O)NC(=O)C1[C@H]2[C@H](CN1C(=O)COc1ccc(Cl)cc1Cl)C2(C)C (stereo partly drawn) [WO2022021841, 55]
- Ki: 31 nM

Compound: CC1(C)[C@H]2CN(C(=O)COc3ccc(Cl)cc3Cl)C(C(=O)N[C@H](C=O)C[C@H]3C(=O)NCC3(F)F)[C@@H]21 (stereo partly drawn) [WO2022021841, 56]
- Ki: 33 nM

Compound: COc1ccc(CNC(=O)N2C[C@@H]3CCC[C@H]3C2C(=O)N[C@H](C=O)C[C@@H]2CCNC2=O)cc1 (stereo partly drawn) [WO2022021841, 57]
- Ki: 26 nM

Compound: O=C[C@H](C[C@@H]1CCNC1=O)NC(=O)C1[C@@H]2CCC[C@H]2CN1C(=S)NCc1ccc(F)cc1 (stereo partly drawn) [WO2022021841, 58]
- Ki: 30 nM

Compound: O=C[C@H](C[C@@H]1CCNC1=O)NC(=O)C1[C@@H]2CCC[C@H]2CN1C(=S)NCc1cccc(F)c1 (stereo partly drawn) [WO2022021841, 59]
- Ki: 37 nM

Compound: CC(C)(C)C(NC(=O)Cc1ccc(Cl)cc1Cl)C(=O)N1C[C@@H]2CCC[C@H]2C1C(=O)N[C@H](C=O)C[C@@H]1CCNC1=O (stereo partly drawn) [WO2022021841, 60]
- Ki: 33 nM

Compound: CC(C)(C)C(NCc1ccc(Cl)cc1Cl)C(=O)N1C[C@@H]2CCC[C@H]2C1C(=O)N[C@H](C=O)C[C@@H]1CCNC1=O (stereo partly drawn) [WO2022021841, 61]
- Ki: 39 nM
